Results on four molecules are retold here after US20240336868A1, “COMPOSITIONS COMPRISING ADAMANTYL ESTER-CONTAINING COMPOUNDS” (The Procter & Gamble Company, priority 2023, published 2024).

This series is classed as physicochemical. Conditions: for Head-space: headspace above about 2E+06 ng/mL solution in isopropyl myristate (IPM); for Head-space / Air/IPM partition coef: 30° C., average of three replicates; for Air/IPM partition coef: in isopropyl myristate (IPM). As to the method: Perfume headspace data is collected for various materials according to the method provided below.
The partition coefficients are calculated by determining the amount of PRM in the headspace above a solution with a known concentration using a GC/FID-MS (Agilent 7890 and 5977A MSD) with a thermal desorption unit (Gerstel MPS2) and Dynamic Headspace Sampler (Gerstel DHS). This technique allows for automated headspace collections using the MultiPurposeSampler (MPS). The PRMs of interest are prepared at a known concentration in isopropyl myristate (IPM) or propylene glycol monomethyl ether (DPM), and 1 mL is pipetted in a 20 mL headspace vial.
DHS Conditions: The sample is tempered in the unit at 30° C. A helium stream at 10 mls/min purges 20 mL of headspace containing the analytes above the sample onto the sorbent tube (TDU) containing 25 mg of TenaxTA 35/60 (Restek cat #25701).
TDU conditions: The sorbent tube is desorbed with a program starting at 30° C. solvent vent for 2 min then ramped at 720° C./min to 270° C. and held for 8 min. The analytes are refocused on a glass bead liner at −60° C. then desorbed at a rate of 12° C./s to 270° C. onto the GC column.
GC/MS conditions: Agilent 122-5532 UI column of 30 m×250 μm×0.25 μm and a flow rate of 1.5 mL/min is utilized. A temperature program of 50° C. to 280° C. with a 2 min hold and a ramp rate of 12° C./min is suitable. Scan or SIM mode MSD parameters with a solvent delay for the DPM are applied to achieve appropriate detection.
Analytical standards can be obtained from AK Scientific, Inc., Union City, CA 94587, USA. A stock solution is prepared at approximately 0.5 g/L. The stock solution is then diluted to 4 to 5 concentrations ranging from approximately 0.05 g/L to 0.00005 g/L. These standard solutions are then analyzed by GC/MS. This analysis is performed by using the same TDU desorption and GC/MS conditions described above with a 1 μL liquid injection onto the TDU tube instead of the DHS collection. The amount injected on column and the area responses of the target m/z are utilized to create a calibration plot with a linear fit.
Quantification of the headspace is performed by the PRM target m/z area response of the perfume component and the linear equation of the calibration plot.
Perfume headspace data is collected for various materials according to the Headspace Method provided above in the Test Methods section. The Air/Solvent partition coefficients are determined and indexed accordingly (e.g., where the partition coefficient for OTNE is set at 1.00).
Results for 2-adamantyl propanoate, 2-adamantyl acetate, and 2-methyl-2-adamantyl acetate in isopropyl myristate (IPM) are provided below in Table 1.

Each structure is given as a SMILES string.

As for `CC(=O)OC1C2CC3CC(C2)CC1C3` (stereo not drawn) [2-adamantyl acetate], the “OTNE Indexed Air/IPM partition coefficient” value is recorded as 8.30, the Head-space amounted to 0.1793 ng/mL and the Air/IPM partition coef was 8.66E−08 ng/mL in air per ng/mL in IPM.

Take `CCC(=O)OC1C2CC3CC(C2)CC1C3` (stereo not drawn) [2-adamantyl propanoate]: the “OTNE Indexed Air/IPM partition coefficient” value turned out to be 5.47, the Head-space amounted to 0.1182 ng/mL and the Air/IPM partition coef is listed as 5.71E−08 ng/mL in air per ng/mL in IPM.

As to `CC(=O)OC1(C)C2CC3CC(C2)CC1C3` (stereo not drawn) [2-methyl-2-adamantyl acetate], the “OTNE Indexed Air/IPM partition coefficient” value is listed as 8.67, the Head-space is reported as 0.1874 ng/mL and the Air/IPM partition coef is given as 9.05E−08 ng/mL in air per ng/mL in IPM.

As to `CC(=O)C1(C)CC2=C(CCCC2(C)C)CC1C` (stereo not drawn) [OTNE, 1-(1,2,3,4,5,6,7,8-Octahydro-2,3,8,8-tetramethyl-2-naphthalenyl) ethanone, reference compound], the “OTNE Indexed Air/IPM partition coefficient” value is 1.00, the Head-space worked out at 0.0216 ng/mL and the Air/IPM partition coef is recorded as 1.04E−08 ng/mL in air per ng/mL in IPM.
